pIC50: −log10 of the molar value. Where only a bound is given, the exact number is not on record here.

The first assay deals with T1, human 11β-HSD1 enzyme (Homo sapiens, UniProt P28845).
T1 construct: stably transfected with a construct containing the full-length gene coding for the human 11β-HSD1 enzyme; expressed in transfected cells; host or cells: HEK293 (HEK293/11β-HSD1 cells)
T1 sequence (P28845 whole entry): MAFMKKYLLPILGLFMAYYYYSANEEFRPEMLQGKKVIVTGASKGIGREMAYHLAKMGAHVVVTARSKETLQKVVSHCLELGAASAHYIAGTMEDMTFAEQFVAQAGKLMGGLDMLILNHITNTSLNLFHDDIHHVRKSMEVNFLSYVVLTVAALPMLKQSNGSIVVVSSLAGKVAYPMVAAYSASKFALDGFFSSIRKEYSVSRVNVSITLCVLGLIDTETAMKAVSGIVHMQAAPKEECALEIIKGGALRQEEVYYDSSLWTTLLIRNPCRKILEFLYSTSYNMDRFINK
Nature of the assay: Cellular in vitro 11β-HSD1 enzyme inhibition assay (SPA, HEK293/11β-HSD1 cells). The class given is cell-based. To be noted: HEK293, less than or equal to 1000 nM (1 μM). The method, boiled down:
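Stably transfected HEK293 cells expressing full-length human 11β-HSD1 were plated 24 h, then incubated with compound 2 h at 37 °C; cortisol formed was quantified by SPA with anti-cortisol antibody. Percent inhibition used no-cell (minimum) and no-compound (maximum) wells; IC50 from four-parameter logistic fit.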
Take `COC(=O)N1CCC(c2cc(C(=O)N3CCCCC3c3ccccc3)cs2)CC1` (stereo not shown) [CC-119]: the pIC50 (commonly the IC50 on a negative log10 scale, so that one unit is a factor of ten) was at least 6.00.
Same read-out and setting: the same measure for `O=C(NCCCO)N1CCC(c2cc(C(=O)N3CCCC4CCCCC43)cs2)CC1` (stereo not shown) [CC-161]: at least 6.00.
The same measure, in the same setting: to `CC(=O)N1CCC(c2cc(C(=O)N3CCCC4CCCCC43)cs2)CC1` (stereo not shown) belongs at least 6.00; to `CC(=O)N1CCC(c2cc(C(=O)N3CCC[C@@H]4CCCC[C@@H]43)cs2)CC1` (single isomer, unassigned) [CC-114, cis-1-{4-[4-(Octahydro-quinoline-1-carbonyl)-thiophen-2-yl]-piperidin-1-yl}-ethanone], at least 6.00.
For the compound `COC(=O)N1CCC(c2cc(C(=O)N3CCC[C@@H]4CCCC[C@@H]43)cs2)CC1` (relative stereo) [CC-066, cis-4-[4-(Octahydro-quinoline-1-carbonyl)-thiophen-2-yl]-piperidine-1-carboxylic acid methyl ester], the pIC50 is at least 6.00.
Consider `CC(C)(C(=O)N1CCCC1)N1CCC(c2cc(C(=O)N3CCCC4CCCCC43)cs2)CC1` (stereo not shown) [CC-170], for which the negative-log IC50 (pIC50) is at least 6.00.
Same read-out and setting: to `CNC(=O)N1CCC(c2cc(C(=O)N3CCCCC3c3ccccc3)cs2)CC1` (stereo not shown) [CC-132] belongs at least 6.00; to `CCc1cc(C(=O)N2CCCCC2)c(Br)s1` [AA-002, (2-Bromo-5-ethyl-thiophen-3-yl)-piperidin-1-yl-methanone], at least 6.00.
The same measure, in the same setting: the same measure for `N#CC1(c2cc(C(=O)N3CCC[C@@H]4CCCC[C@@H]43)cs2)CCOCC1` (relative stereo) [CC-127, cis-4-[4-(Octahydro-quinoline-1-carbonyl)-thiophen-2-yl]-tetrahydro-pyran-4-carbonitrile]: at least 6.00; for `CC(C)(C(N)=O)N1CCC(c2cc(C(=O)N3CCC[C@@H]4CCCC[C@@H]43)cs2)CC1` (relative stereo) [CC-158, cis-2-{4-[4-(Octahydro-quinoline-1-carbonyl)-thiophen-2-yl]-piperidin-1-yl}-isobutyramide]: at least 6.00; for `O=C(c1csc(C2CCNCC2)c1)N1CCCCC1c1ccccc1` (single isomer, unassigned) [CC-130, cis-(2-Phenyl-piperidin-1-yl)-(5-piperidin-4-yl-thiophen-3-yl) methanone]: at least 6.00.
The same measure, in the same setting: to `O=C(NCCO)N1CCC(c2cc(C(=O)N3CCC[C@@H]4CCCC[C@@H]43)cs2)CC1` (racemic) [CC-157, cis-4-[4-(Octahydro-quinoline-1-carbonyl)-thiophen-2-yl]-piperidine-1-carboxylic acid(2-hydroxy-ethyl)-amide] belongs at least 6.00.
`O=C(c1csc(C2CCNCC2)c1)N1CCC[C@@H]2CCCC[C@@H]21` (single isomer, unassigned) [CC-159, cis-(octahydro-quinolin-1-yl)-(5-piperidin-4-yl-thiophen-3-yl)-methanone] had a pIC50 of at least 6.00.
The compound `CC1(C)CC2CC(C)(CN2C(=O)c2cc(C3CCOCC3)sc2Cl)C1` (stereo not shown) [CC-070] gave a negative-log IC50 (pIC50) of at least 6.00.
Same read-out and setting: to `CC1(C)CC2CC(C)(CN2C(=O)c2csc(C3CCNCC3)c2)C1` (stereo not shown) [CC-072] belongs at least 6.00; to `O=C(c1cc(C2CCOCC2)sc1Cl)N1CCC2CCCCC2C1` (stereo not shown) [CC-031], at least 6.00.
On the same count and under the same terms, to `CC1(C)CCCN(C(=O)c2cc(C3CCOCC3)sc2Cl)C1` [CC-005] belongs at least 6.00; to `CCc1cc(C(=O)N2CCCCCC2)c(Cl)s1` [AA-004], at least 6.00.
As to `CCc1cc(C(=O)N2CCCC3CCCCC32)c(Cl)s1` (stereo not shown) [AA-013], the negative-log IC50 (pIC50) is at least 6.00.
`O=C(Cc1ccccn1)N1CCC(c2cc(C(=O)N3CCCC4CCCCC43)cs2)CC1` (stereo not shown) [CC-133]: the pIC50 was at least 6.00.
As to `O=C(c1cc(C2CCOCC2)sc1Cl)N1CCCC2CCCCC21` (stereo not shown) [CC-030], the pIC50 was at least 6.00.
Same read-out and setting: the same measure for `O=C(C1CC1)N1CCC(c2cc(C(=O)N3CCCC4CCCCC43)cs2)CC1` (stereo not shown) [CC-099]: at least 6.00; for `O=C(CO)N1CCC(c2cc(C(=O)N3CCCC4CCCCC43)cs2)CC1` (stereo not shown) [CC-054]: at least 6.00.
On the same count and under the same terms, to `O=C(OCc1ccccc1)N1CCC(c2cc(C(=O)N3CCCCCC3)cs2)CC1` [CC-007, 4-[4-(Azepane-1-carbonyl)-thiophen-2-yl]-piperidine-1-carboxylic acid benzyl ester] belongs at least 6.00; to `CC1(C)CCCN(C(=O)c2csc(C3CCOCC3)c2)CC1` [CC-021], at least 6.00; to `O=C(CCc1c[nH]cn1)N1CCC(c2cc(C(=O)N3CCCC4CCCCC43)cs2)CC1` (stereo not shown) [CC-151], at least 6.00.
The same measure, in the same setting: to `O=C(c1csc(CC(F)(F)F)c1)N1CCC[C@@H]2CCCC[C@@H]21` (relative stereo) [AA-012, cis-(Octahydro-quinolin-1-yl)-[5-(2,2,2-trifluoro-ethyl)-thiophen-3-yl]-methanone] belongs at least 6.00; to `CC1(C)CCCN(C(=O)c2csc(C3CCCCC3)c2)C1` [DD-001], at least 6.00.

The same assay, now with this note: HEK293, more than 1000 nM (1.0 μM) and less than or equal to 30 μM.
Consider `O=C(c1csc(C2CCCCC2)c1)N1CCCC2(CCCCC2)C1` [DD-006], for which the pIC50 is 4.52 to 6.00.
The same measure, in the same setting: to `CC1(C)CCCN(C(=O)c2csc(C3CCN(S(C)(=O)=O)CC3)c2)CC1` [CC-096] belongs 4.52 to 6.00.
The same measure, in the same setting: the same measure for `CC1(C)CCCN(C(=O)c2csc(N3CCOCC3)c2)C1` [CC-010, (3,3-Dimethyl-piperidin-1-yl)-(5-morpholin-4-yl-thiophen-3-yl)-methanone]: 4.52 to 6.00; for `O=C1CCCN1CCCN1CCC(c2cc(C(=O)N3CCCC4CCCCC43)cs2)CC1` (stereo not drawn) [CC-156, cis-{1-(3-{4-[4-(Octahydro-quinoline-1-carbonyl)-thiophen-2-yl]-piperidin-1-yl}-propyl)-pyrrolidin-2-one]: 4.52 to 6.00; for `COC(=O)N1CCC(c2cc(C(=O)N3CCCC(C)(C)CC3)cs2)CC1` [CC-094]: 4.52 to 6.00.
On the same count and under the same terms, the same measure for `O=C(c1csc(C2CCNCC2)c1)N1CCCC(c2ccccc2)C1` (stereo not shown) [CC-018]: 4.52 to 6.00.
In the case of `O=C(c1csc(C2CCOCC2)c1)N1CCC2CCCCC2C1` (stereo not shown) [CC-029], the pIC50 is 4.52 to 6.00.
Still for that read-out and setting: to `O=C(CCn1ccnc1)N1CCC(c2cc(C(=O)N3CCCC4CCCCC43)cs2)CC1` (stereo not shown) [CC-117] belongs 4.52 to 6.00.
The same measure, in the same setting: the same measure for `O=C(c1csc(C2CCNCC2)c1)N1CCCCCC1` [CC-008, Azepan-1-yl-(5-piperidin-4-yl-thiophen-3-yl)-methanone]: 4.52 to 6.00; for `O=C(c1csc(C2CCN(S(=O)(=O)C3CC3)CC2)c1)N1CCCC2CCCCC21` (stereo not shown) [CC-093]: 4.52 to 6.00.
Still for that read-out and setting: to `CC(=O)N1CCC(c2cc(C(=O)N3CCN4CCCCC4C3)cs2)CC1` (stereo not shown) [CC-037] belongs 4.52 to 6.00.
`O=C1CNCCN1c1cc(C(=O)N2CCC[C@@H]3CCCC[C@@H]32)cs1` (relative stereo) [CC-048, cis-1-[4-(Octahydro-quinoline-1-carbonyl)-thiophen-2-yl]-piperazin-2-one] showed a pIC50 of 4.52 to 6.00.
Compound `CC1(C)CCCN(C(=O)c2csc(C3CCNCC3)c2)CC1` [CC-023, (4,4-dimethyl-azepan-1-yl)-(5-piperidin-4-yl-thiophen-3-yl)-methanone] gave a pIC50 of 4.52 to 6.00.
Compound `O=C(c1csc(C2CCN(CC(O)CO)CC2)c1)N1CCCC2CCCCC21` (stereo not shown) [CC-153] had a pIC50 of 4.52 to 6.00.
Same read-out and setting: to `O=C(c1csc(C2CCNCC2)c1)N1CCCC1c1ccccc1` (stereo not shown) [CC-020] belongs 4.52 to 6.00; to `O=C(c1csc(COc2ccccc2)c1)N1CCCCC1` [BB-001], 4.52 to 6.00; to `CC(=O)N1CC=C(c2cc(C(=O)N3CCCCCC3)cs2)CC1` [CC-016, 1-{4-[4-(Azepane-1-carbonyl)-thiophen-2-yl]-3,6-dihydro-2H-pyridin-1-yl}-ethanone], 4.52 to 6.00.
Same read-out and setting: to `O=C(CN1CCOCC1)N1CCC(c2cc(C(=O)N3CCCC4CCCCC43)cs2)CC1` (stereo not shown) [CC-060] belongs 4.52 to 6.00; to `CN(C)CCNC(=O)N1CCC(c2cc(C(=O)N3CCCC4CCCCC43)cs2)CC1` (stereo not shown) [CC-162], 4.52 to 6.00.

The same assay, now with this note: HEK293 cells stably transfected with human 11β-HSD1; Table 1.
As to `COC(=O)N1CCC(c2cc(C(=O)N3CCCCC3c3ccccc3)cs2)CC1` (stereo not shown) [CC-119], the pIC50 is 7.21.

For another assay, the target named is T2, human 11β-HSD2 (Homo sapiens, UniProt P80365).
T2 construct: CHO cells stably transfected with the full-length gene coding for human 11β-HSD2 were used; expressed in transfected cells; host or cells: CHO
T2 sequence (P80365 1-405): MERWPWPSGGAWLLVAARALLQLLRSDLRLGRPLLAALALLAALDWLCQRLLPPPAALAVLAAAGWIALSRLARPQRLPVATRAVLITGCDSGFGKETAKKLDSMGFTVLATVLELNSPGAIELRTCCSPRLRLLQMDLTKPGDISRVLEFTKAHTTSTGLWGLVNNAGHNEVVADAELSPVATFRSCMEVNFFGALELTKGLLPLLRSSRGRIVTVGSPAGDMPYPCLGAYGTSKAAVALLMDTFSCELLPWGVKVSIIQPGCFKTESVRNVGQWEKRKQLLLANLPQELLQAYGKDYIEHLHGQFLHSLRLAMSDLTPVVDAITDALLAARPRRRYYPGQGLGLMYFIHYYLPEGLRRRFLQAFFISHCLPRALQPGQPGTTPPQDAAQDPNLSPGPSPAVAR
The experiment in a line: Cellular in vitro 11β-HSD2 enzyme inhibition assay (CHO cells, TLC/phosphoimager). The following applies: CHO cells stably transfected with human 11β-HSD2; Table 1. The class given is cell-based. As to the method: Cellular In Vitro 11β-HSD2 Enzyme Inhibition Assay
For measurement of inhibition of 11β-HSD2, CHO cells stably transfected with the full-length gene coding for human 11β-HSD2 were used. Assays were carried out in 96-well microplates containing 1×10^5 cells/well. Controls and compounds were plated as above, so that the final DMSO concentration in each well was 1%. To initiate the assay, 90 μL of a solution of HAMS F-12 medium containing 1% glutamine, 1% penicillin and streptomycin, and 22 nM tritiated cortisol was added to each well of the assay plate. The plate was then incubated in 5% CO2, 95% O2 at 37° C. for 16 hours.
The assay solutions were transferred to glass tubes and 20 μL ethyl acetate added to each tube. Each tube was vortexed thoroughly and the upper layer containing the tritiated steroid transferred to a fresh glass tube. The solvent was evaporated by placing the tubes in a heating block at 65° C. under a stream of Nitrogen gas. 20 μL ethanol was added to each of the dried samples and vortexed briefly. Each sample was applied to a silica TLC plate and the plate dried. The plate was placed vertically in a glass tank containing 92% chloroform:8% ethanol and the solvent allowed to rise up the plate. The plate was dried, placed in an imaging cassette, and overlayed with a tritium imaging plate for 1-2 days. The amount of enzyme inhibition in each sample was determined by measuring the intensity of the substrate and product spots using a phosphoimager.
IC50 values for inhibitors were determined as described for 11β-HSD1.
As to `COC(=O)N1CCC(c2cc(C(=O)N3CCCCC3c3ccccc3)cs2)CC1` (stereo not shown) [CC-119], the negative logarithm of the IC50 (pIC50) was under 5.00.

Source of the values: patent US8362008B2 (The University Of Edinburgh, priority 2007, dated 2013).
